US12429487B2, “Neurofilament protein for guiding therapeutic intervention in amyotrophic lateral sclerosis” (Biogen MA Inc., priority 2018, dated 2025)
Entries after “also recorded” stand apart in the source; their conditions may differ. Where two headings read alike, the source gives them in different places. Oligonucleotides are written 5' to 3', each unit as a sugar letter and its base; * is a phosphorothioate linkage, no mark a phosphodiester; rarer units and linkages stand in square brackets, end groups in braces. Plain capitals give the bases only. e = 2'-O-(2-methoxyethyl) (MOE); k = constrained ethyl (cEt); [5mC] = 5-methylcytosine; d = 2'-deoxy (DNA)

Legend:
people with ALS = settings: cited from earlier work
SOD1^G93A mice [1] = assay: SOD1^G93A mice: CMAP and neuromuscular junction innervation; type: in vivo, mouse; settings: for compound muscle action potential (CMAP): 100 μg intraventricularly once at 5 weeks of age, next 12 weeks
Text: To test whether SOD1 reduction by ASO could affect markers of disease, […] in compound muscle action potential (CMAP), neuromuscular junction innervation, and serum phospho-neurofilament heavy chain (pNfH) levels. In SOD1^G93Amice, CMAP declines over time, preceding the loss of motor neurons.

SOD1 mRNA = SOD1 mRNA lowering in human neuroblastoma cell line SH-SY5Y; type: cell-based; settings: SH-SY5Y cells
SOD1^G93A mice [2] = assay: SOD1^G93A mice: weight, rotarod, survival after i.c.v. bolus; type: in vivo, mouse; settings: 300 μg bolus at 50 and 94 days of age
Procedure: To investigate whether a SOD1-lowering ASO strategy could delay disease parameters, SOD1^G93A mice (B6.CgTg(SOD1*G93A)Gur/J) were infused Intracerebroventricular […] with bolus doses of 300 μg ASO1 at 50 and 94 days of age. Weight and performance on rotarod were tested weekly.

SOD1^G93A rats = assay: SOD1^G93A rats: weight loss onset and survival after intrathecal bolus; type: in vivo, rat; settings: 1000 μg intrathecal bolus, 65-day-old rats
Procedure: SOD1^G93A rats (Taconic Biosciences, model 2148) received a 30-μl intrathecal bolus injection via polyethylene catheter placed between the L3 and L5 vertebrae of the lumber spinal cord. […] All ASOs were diluted in aCSF. All treatment groups were sexual phenotype- and litter-matched to control for drift in copy count or sexual phenotype-induced variances.

[3] = system: serum phospho-neurofilament heavy chain (pNfH); assay: SOD1^G93A mice: serum pNfH by ELLA microfluidic ELISA; type: in vivo, mouse; settings: single dose 300 μg at 5 weeks; 8 and 10 weeks of age; vs control ASO, FIG. 4
Procedure: pNfH increases in CSF and serum in ALS rodent models, human patients with ALS, and other neurodegenerative diseases. To look at phosphorylated neurofilament heavy chain levels in the serum, blood was collected at baseline (5 weeks) before i.e.v. injection, and then again at 8 and 10 weeks of age from the SOD1^G93A mutant mice injected once at 5 weeks of age with a single dose of 300 μg ASO1). pNfH serum levels were measured through the ELLA microfluidic ELISA platform (Protein Simple) according to the manufacturer's instructions. Briefly, a maximum of 100 μl blood was collected through facial vein puncture at the indicated time points. Serum samples were prepared by centrifugation of BD Vacutainer SST tubes (BD Diagnostics) and stored at −80° C. until used.

CSF SOD1 protein = assay: SAD/MAD clinical trial in SOD1 ALS patients: CSF SOD1 concentration; type: in vivo, human; settings: 40 mg, 60 mg and 100 mg cohorts; maximal at 100 mg, Day 85
Procedure: (§1) A double-blind, randomized, placebo-controlled, clinical trial was conducted in SOD1 ALS patients. The trial involved single and multiple ascending dose (SAD/MAD) studies. In the MAD portion, participants received 5 doses of study drug over approximately 3 months. Fifty adult participants with SOD1 mutation were randomized 3:1 (ASO: placebo) per cohort to receive 20 mg, 40 mg, 60 mg, or 100 mg of placebo or a SOD-1 decreasing ASO-ASO1 (SEQ ID NO:8).

SOD1 ALS patients = assay: SAD/MAD clinical trial in SOD1 ALS patients: ALSFRS-R and SVC; type: in vivo, human; settings: vs placebo
Procedure: as §1

pNfH and NfL = assay: SAD/MAD clinical trial in SOD1 ALS patients: plasma and CSF pNfH and NfL; type: in vivo, human
Procedure: as §1
Baseline pNfH and NfL levels were highest in fast progressing patients and correlated with disease activity (as measured by ALSFRS-R prerandomization slope). […] In FIGS. 7A-7D, overall placebo (n=12) is the solid line at, near, or above the 1.0 baseline measure throughout the study; overall ASO1 100 mg treatment (n=10) is the solid line declining below the 1.0 baseline measure throughout the study; fast progressing placebo (n=4) is the dotted line at, near, or above the 1.0 baseline measure throughout the study; and fast progressing ASO1 100 mg treatment (n=4) is the dotted line declining below the 1.0 baseline measure throughout the study. pNfH levels were assessed using the ProteinSimple™ Simple Plex Ella immunoassay. NfL levels were assessed using the Quanterix Simoa NfL Advantage assay.

ALS patients = settings: EMPOWER, 12 months, vs placebo
Text: EMPOWER was a Phase 3 global randomized clinical trial (RCT) of the safety and efficacy of dexpramipexole in the treatment of ALS conducted at 81 academic medical centers enrolling 943 adults (see Cudkowicz M E et al., Lancet Neurol. 2013 November; 12(11):1059-67).
The subjects included in the EMPOWER study had to have a diagnosis of possible, probable, or definite ALS, have had ALS symptoms for fewer than 24 months, have an SVC value that was at least 65% of the predicted value, and no significant comorbidities.
In the study, the subjects were allocated in a 1:1 ratio to treatment with dexpramipexole or placebo for 12 months, […]

[4] = system: plasma neurofilament heavy chain (NFH); settings: EMPOWER, vs placebo, FIG. 2
Text: Determination of baseline as well as longitudinal plasma neurofilament heavy chain (NFH) concentrations in the clinical trial of dexpramipexole, EMPOWER, and assessment of their relationship to clinical outcomes including survival and the rates of decline of muscle strength (assessed by hand-held dynamometry [HHD]), slow vital capacity (SVC), and ALSFRS-R).
Plasma neurofilament heavy (NFH), measured using a NFH assay on the Ella, an automated microfluidic cartridge based immunoassay platform from Protein Simple.

In the case of Nc1nc2ccc(OC(F)(F)F)cc2s1 [riluzole], the “disease progression / decline in daily functioning” value (people with ALS) is given as “appears to slow the disease's progression in some people with ALS” and the side effects (people with ALS) is given as “dizziness, gastrointestinal conditions and liver function changes”.

In the case of “CCoToAoTAGGACTATCCAoGoGoAA (antisense CCTATAGGACTATCCAGGAA; chemically modified at marked places, type not given here) [Inactive ASO (in vivo), reference compound]”, the “compound muscle action potential (CMAP)” value (SOD1^G93A mice [1]) is reported as “reduced by more than half” and the “denervation of muscle endplates” value (SOD1^G93A mice [1]; tibialis anterior, FIG. 3) is reported as “more than 75%”.

With “CAoGGoATACATTTCTACoAGoCT (antisense CAGGATACATTTCTACAGCT; modified backbone linkages at marked places, type not given here) [ASO1]” the “SOD1 mRNA” value (SOD1 mRNA) was “potently lowered SOD1 mRNA in a dose-dependent manner”, the “maintained weight, days longer than inactive ASO” value (SOD1^G93A mice [2]) was 26 days and the “median survival longer compared with inactive ASO” value (SOD1^G93A mice [2]) was 37 days. For the same molecule, the extension of survival (SOD1^G93A mice [2]; vs inactive ASO) was 22%, the performance on rotarod (SOD1^G93A mice [2]; vs inactive ASO) was “performed better on rotarod” and the “maintained weight, days longer than aCSF” value (SOD1^G93A rats) was 70 days. The “compound muscle action potential (CMAP)” value (SOD1^G93A mice [1]) was “maintained CMAP”, the “innervation of the tibialis anterior muscles” value (SOD1^G93A mice [1]; single dose 300 μg at 5 weeks of age, FIG. 3) was “maintained innervation” and the “serum pNfH levels” value [3] was “lower levels of pNfH”. The “CSF SOD1 concentrations, change from baseline” value (CSF SOD1 protein) was “Reductions from baseline”, the clinical decline (SOD1 ALS patients; patients with fast-progressing SOD1 mutations) was “slowing of clinical decline” and the “functional decline (ALSFRS-R)” value (SOD1 ALS patients; FIG. 6A) was “slowing of functional decline”. For the same molecule, the “decline in respiratory function (SVC)” value (SOD1 ALS patients; FIG. 6B) was “slowing of decline in respiratory function”, the “plasma pNfH levels” value (pNfH and NfL; 100 mg over time vs placebo, FIG. 7A) was “reduction” and the “plasma NfL levels” value (pNfH and NfL; 100 mg over time vs placebo, FIG. 7B) was “reduction”. For the same molecule, the “CSF NfL levels” value (pNfH and NfL; 100 mg over time vs placebo, FIG. 7D) was “reduction”, the “CSF pNfH levels” value (pNfH and NfL; 100 mg vs placebo, overall) was “Lowering of CSF pNfH; also recorded: reduction” and the “CSF pNfH levels” value (pNfH and NfL; patients with fast-progressing SOD1 mutations, vs placebo) was “reduction in CSF pNfH levels”.

In the case of “TToAoATGTTTATCAoGoGAT (antisense eT*eTeAeA*dT*dG*dT*dT*dT*dA*dT*d[5mC]*kAkGeG*eA*eT) [ASO2]”, the “SOD1 mRNA” value (SOD1 mRNA) is reported as “potently lowered SOD1 mRNA in a dose-dependent manner” and the “maintained weight, days longer than aCSF” value (SOD1^G93A rats) is reported as 67 days.

For “CCGTCGCCCTTCAGCACGCA (antisense e[5mC]*e[5mC]*eG*eT*e[5mC]*dG*d[5mC]*d[5mC]*d[5mC]*dT*dT*d[5mC]*dA*dG*d[5mC]*eA*e[5mC]*eG*e[5mC]*eA) [compound 333611, reference compound]”, the “onset of weight loss, median” value (SOD1^G93A rats) was 139 days.

For CC1=NN(c2ccccc2)C(=O)C1 [edaravone], the “disease progression / decline in daily functioning” value (people with ALS) is listed as “reduction the decline in daily functioning” and the side effects (people with ALS) is listed as “bruising, gait disturbance, hives, swelling and shortness of breath”.

In the case of CCCN[C@@H]1CCc2nc(N)sc2C1 [dexpramipexole], the “ALS symptoms / clinical efficacy” value (ALS patients; listed as depramipexole) is reported as “did not reduce ALS symptoms”, the “ALS symptoms / clinical efficacy” value (ALS patients; listed as dexpramiexole) is reported as “without clinical efficacy” and the “longitudinal plasma NFH course” value [4] is reported as “no difference”.
